The target of this experiment is T1, MAGL (Homo sapiens, UniProt Q99685).
T1 sequence (Q99685 1-303): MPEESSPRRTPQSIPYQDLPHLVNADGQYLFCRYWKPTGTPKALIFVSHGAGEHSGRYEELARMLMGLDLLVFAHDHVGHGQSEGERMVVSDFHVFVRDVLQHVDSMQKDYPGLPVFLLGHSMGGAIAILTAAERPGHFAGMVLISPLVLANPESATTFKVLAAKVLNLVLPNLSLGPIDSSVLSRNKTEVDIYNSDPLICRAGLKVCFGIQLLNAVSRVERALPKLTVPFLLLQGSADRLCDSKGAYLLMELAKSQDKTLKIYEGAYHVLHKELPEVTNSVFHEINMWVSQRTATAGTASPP
Put plainly: 2-AG assay: MAGL inhibitory activity by hydrolysis of 2-arachidonoylglycerol to arachidonic acid, followed by mass spectrometry. Format: biochemical. Particulars: 15 min preincubation, 30 min reaction at RT, 8 μM 2-arachidonoylglycerol.

The IC50 is the concentration that gives 50% inhibition. For the molecule `O=C1COCC2(CN(C(=O)N3CC4(CC(Cc5cc(C(F)(F)F)ccn5)C4)C3)C2)N1` [Example 178, 2-[6-[[4-(trifluoromethyl)-2-pyridyl]methyl]-2-azaspiro[3.3]heptane-2-carbonyl]-8-oxa-2,5-diazaspiro[3.5]nonan-6-one], half-maximal inhibition (IC50) was put at 15.4 nM.

For `O=C1CCC2(CN(C(=O)N3CC4(CC(Cc5ccc(OC(F)(F)F)nc5)C4)C3)C2)N1` [Example 179, 2-[6-[[6-(trifluoromethoxy)-3-pyridyl]methyl]-2-azaspiro[3.3]heptane-2-carbonyl]-2,5-diazaspiro[3.4]octan-6-one], inhibition was half-maximal at 1.66 nM (IC50). Against the preceding molecule, the IC50 is about 9.3-fold lower.

With `O=C1COCC2(CN(C(=O)N3CC4(CC(Cc5cncc(F)c5)C4)C3)C2)N1` [Example 180, 2-[6-[(5-fluoro-3-pyridyl)methyl]-2-azaspiro[3.3]heptane-2-carbonyl]-8-oxa-2,5-diazaspiro[3.5]nonan-6-one], the IC50 came out at 202 nM.

As for `CS(=O)(=O)c1ccc(CC2CC3(C2)CN(C(=O)N2CC4(COCC(=O)N4)C2)C3)cc1C(F)(F)F` [Example 181, 2-[6-[[4-methylsulfonyl-3-(trifluoromethyl)phenyl]methyl]-2-azaspiro[3.3]heptane-2-carbonyl]-8-oxa-2,5-diazaspiro[3.5]nonan-6-one], the IC50 is 1.45 nM.

`O=C1COCC2(CN(C(=O)N3CC4(CC(Cc5cccc(S(=O)(=O)C(F)(F)F)c5)C4)C3)C2)N1` [Example 182, 2-[6-[[3-(trifluoromethylsulfonyl)phenyl]methyl]-2-azaspiro[3.3]heptane-2-carbonyl]-8-oxa-2,5-diazaspiro[3.5]nonan-6-one] showed a half-maximal inhibitory concentration (IC50) of 485 nM.

As to `CS(=O)(=O)c1ccc(CC2CC3(C2)CN(C(=O)N2CC4(COCC(=O)N4)C2)C3)cc1C(F)(F)F` [Example 183], half-maximal inhibition (IC50) required 7.31 nM.

`CS(=O)(=O)c1cc(C(F)(F)F)ccc1CC1CC2(C1)CN(C(=O)N1CC3(COCC(=O)N3)C1)C2` [Example 184, 2-[6-[[2-methylsulfonyl-4-(trifluoromethyl)phenyl]methyl]-2-azaspiro[3.3]heptane-2-carbonyl]-8-oxa-2,5-diazaspiro[3.5]nonan-6-one] displayed an IC50 of 210 nM.

Turning to `CS(=O)(=O)c1cc(C(F)(F)F)ccc1CC1CC2(C1)CN(C(=O)N1CC3(CCCC(=O)N3)C1)C2` [Example 185, 2-[6-[[2-methylsulfonyl-4-(trifluoromethyl)phenyl]methyl]-2-azaspiro[3.3]heptane-2-carbonyl]-2,5-diazaspiro[3.5]nonan-6-one], the IC50 came out at 34.5 nM.

`O=C1CCCC2(CN(C(=O)N3CC4(CC(Cc5cccc(S(=O)(=O)C(F)(F)F)c5)C4)C3)C2)N1` [Example 186, 2-[6-[[3-(trifluoromethylsulfonyl)phenyl]methyl]-2-azaspiro[3.3]heptane-2-carbonyl]-2,5-diazaspiro[3.5]nonan-6-one]: the IC50 is 95 nM.

Take `CS(=O)(=O)c1cccc(CN2CC3(C2)CN(C(=O)N2CC4(COC(=O)N4)C2)C3)c1` [Example 187, 2-[6-[(3-methylsulfonylphenyl)methyl]-2,6-diazaspiro[3.3]heptane-2-carbonyl]-7-oxa-2,5-diazaspiro[3.4]octan-6-one]: it took 46.7 nM to reach half-maximal inhibition (IC50). Compared with the last molecule, the IC50 is about 2-fold lower.

`O=C1NC2(CO1)CN(C(=O)N1CC3(CCN(S(=O)(=O)c4ccc(C(F)(F)F)cc4F)CC3)C1)C2` [Example 189, 2-[7-[2-fluoro-4-(trifluoromethyl)phenyl]sulfonyl-2,7-diazaspiro[3.5]nonane-2-carbonyl]-7-oxa-2,5-diazaspiro[3.4]octan-6-one] came in with an IC50 of 1.72 nM.

Take `O=C1NC2(CO1)CN(C(=O)N1CC3(C1)CN(S(=O)(=O)c1ccccc1OC(F)(F)F)C3)C2` [Example 190, 2-[2-[2-(trifluoromethoxy)phenyl]sulfonyl-2,6-diazaspiro[3.3]heptane-6-carbonyl]-7-oxa-2,5-diazaspiro[3.4]octan-6-one]: the midpoint of inhibition, the IC50, lay at 10.4 nM.

Regarding `O=C1NC2(CO1)CN(C(=O)N1CC3(C1)CN(S(=O)(=O)c1ccc(OC(F)(F)F)cc1)C3)C2` [Example 191, 2-[2-[4-(trifluoromethoxy)phenyl]sulfonyl-2,6-diazaspiro[3.3]heptane-6-carbonyl]-7-oxa-2,5-diazaspiro[3.4]octan-6-one], the IC50 was 30 nM.

Take `O=C1NC2(CO1)CN(C(=O)N1CC3(C1)CN(S(=O)(=O)c1cccc(OC(F)(F)F)c1)C3)C2` [Example 192, 2-[2-[3-(trifluoromethoxy)phenyl]sulfonyl-2,6-diazaspiro[3.3]heptane-6-carbonyl]-7-oxa-2,5-diazaspiro[3.4]octan-6-one]: the IC50 is 14.7 nM.

Take `CC1(NS(=O)(=O)N2CC3(CN(C(=O)N4CC5(COC(=O)N5)C4)C3)C2)CC1` [Example 193, N-(1-methylcyclopropyl)-6-(6-oxo-7-oxa-2,5-diazaspiro[3.4]octane-2-carbonyl)-2,6-diazaspiro[3.3]heptane-2-sulfonamide]: half-maximal inhibition (IC50) was put at 65.3 nM.

Molecule `O=C1CCC2(CN(C(=O)N3CC4(CCN(S(=O)(=O)c5ccc(C(F)(F)F)cc5F)CC4)C3)C2)N1` [Example 194, 2-[7-[2-fluoro-4-(trifluoromethyl)phenyl]sulfonyl-2,7-diazaspiro[3.5]nonane-2-carbonyl]-2,5-diazaspiro[3.4]octan-6-one] displayed an IC50 of 44.6 nM.

On to `O=C1NC2(CO1)CN(C(=O)N1CC3(C1)CN(S(=O)(=O)c1ccc(F)cc1C(F)(F)F)C3)C2` [Example 195, 2-[2-[4-fluoro-2-(trifluoromethyl)phenyl]sulfonyl-2,6-diazaspiro[3.3]heptane-6-carbonyl]-7-oxa-2,5-diazaspiro[3.4]octan-6-one], for which the IC50 turned out to be 2.51 nM.

`O=C1NC2(CO1)CN(C(=O)N1CC3(C1)CN(S(=O)(=O)c1cncc(C(F)(F)F)c1)C3)C2` [Example 196, 2-[2-[[5-(trifluoromethyl)-3-pyridyl]sulfonyl]-2,6-diazaspiro[3.3]heptane-6-carbonyl]-7-oxa-2,5-diazaspiro[3.4]octan-6-one] yielded an IC50 of 38.8 nM.

With `O=C1NC2(CO1)CN(C(=O)N1CC3(C1)CN(S(=O)(=O)NCC1(C(F)(F)F)CC1)C3)C2` [Example 197, 6-(6-oxo-7-oxa-2,5-diazaspiro[3.4]octane-2-carbonyl)-N-[[1-(trifluoromethyl)cyclopro-pyl]methyl]-2,6-diazaspiro[3.3]heptane-2-sulfonamide], the IC50 is 4.39 nM.

As for `O=C1CCC2(CN(C(=O)N3CC4(C3)CN(S(=O)(=O)c3cccc(OC(F)(F)F)c3)C4)C2)N1` [Example 198, 2-[2-[3-(trifluoromethoxy)phenyl]sulfonyl-2,6-diazaspiro[3.3]heptane-6-carbonyl]-2,5-diazaspiro[3.4]octan-6-one], the IC50 amounted to 232 nM.

In the case of `O=C1CCC2(CN(C(=O)N3CC4(C3)CN(S(=O)(=O)c3ccc(OC(F)(F)F)cc3)C4)C2)N1` [Example 199, 2-[2-[4-(trifluoromethoxy)phenyl]sulfonyl-2,6-diazaspiro[3.3]heptane-6-carbonyl]-2,5-diazaspiro[3.4]octan-6-one], inhibition was half-maximal at 266 nM (IC50).

Regarding `O=C1CCC2(CN(C(=O)N3CC4(C3)CN(S(=O)(=O)c3ccccc3OC(F)(F)F)C4)C2)N1` [Example 200, 2-[2-[2-(trifluoromethoxy)phenyl]sulfonyl-2,6-diazaspiro[3.3]heptane-6-carbonyl]-2,5-diazaspiro[3.4]octan-6-one], the IC50 turned out to be 116 nM.

The molecule `CNC(=O)c1ccccc1CN1CC2(C1)CN(C(=O)N1CC3(COC(=O)N3)C1)C2` [Example 201, N-methyl-2-[[2-(6-oxo-7-oxa-2,5-diazaspiro[3.4]octane-2-carbonyl)-2,6-diazaspiro[3.3]heptan-6-yl]methyl]benzamide] came in with an IC50 of 165 nM.

Regarding `O=C1NC2(CO1)CN(C(=O)N1CC3(C1)CN(c1ccc(C(F)(F)F)cn1)C3)C2` [Example 202, 2-[6-[5-(trifluoromethyl)-2-pyridyl]-2,6-diazaspiro[3.3]heptane-2-carbonyl]-7-oxa-2,5-diazaspiro[3.4]octan-6-one], the IC50 is 61.4 nM.

In turn, `O=C1NC2(CO1)CN(C(=O)N1CC3(C1)CN(c1ncc(C(F)(F)F)cc1F)C3)C2` [Example 203, 2-[6-[3-fluoro-5-(trifluoromethyl)-2-pyridyl]-2,6-diazaspiro[3.3]heptane-2-carbonyl]-7-oxa-2,5-diazaspiro[3.4]octan-6-one] had an IC50 of 61.6 nM. The IC50 values of the last two molecules are within 1.5-fold of each other.

The molecule `O=C1NC2(CO1)CN(C(=O)N1CC3(CCN(S(=O)(=O)C45CC(C(F)(F)F)(C4)C5)CC3)C1)C2` [Example 204, 2-[7-[[3-(trifluoromethyl)-1-bicyclo[1.1.1]pentanyl]sulfonyl]-2,7-diazaspiro[3.5]nonane-2-carbonyl]-7-oxa-2,5-diazaspiro[3.4]octan-6-one] gave an IC50 of 11.8 nM.

For `O=C1CCC2(CN(C(=O)N3CC4(CCN(S(=O)(=O)C56CC(C(F)(F)F)(C5)C6)CC4)C3)C2)N1` [Example 205, 2-[7-[[3-(trifluoromethyl)-1-bicyclo[1.1.1]pentanyl]sulfonyl]-2,7-diazaspiro[3.5]nonane-2-carbonyl]-2,5-diazaspiro[3.4]octan-6-one], half-maximal inhibition (IC50) was put at 265 nM.

On to `O=C1NC2(CO1)CN(C(=O)N1CC3(C1)CN(c1cnc(C(F)(F)F)cn1)C3)C2` [Example 206, 2-[6-[5-(trifluoromethyl)pyrazin-2-yl]-2,6-diazaspiro[3.3]heptane-2-carbonyl]-7-oxa-2,5-diazaspiro[3.4]octan-6-one], for which 278 nM corresponded to half-maximal inhibition (IC50).

Take `O=C1NC2(CO1)CN(C(=O)N1CC3(C1)CN(c1ncc(C(F)(F)F)cn1)C3)C2` [Example 207, 2-[6-[5-(trifluoromethyl)pyrimi-din-2-yl]-2,6-diazaspiro[3.3]heptane-2-carbonyl]-7-oxa-2,5-diazaspiro[3.4]octan-6-one]: the IC50 was determined as 414 nM.

These data come from patent US20240383904A1, “HETEROCYCLIC COMPOUNDS” (Hoffmann-La Roche Inc., priority 2021, published 2024).
